Where “and” joins values, the source holds several entries; their conditions need not be identical. Identical values can stand only once. Like-named read-outs stand apart in the source and are kept apart here.
Tests used:
SH-SY5Y cells = experiment: Cytotoxicity by propidium iodide staining; type: cell-based; details: 100 μM, 24 h
Procedure: Cytotoxicity was evaluated in the human neuroblastoma SH-SY5Y cell line (ATCC number: CRL-2266). Cells were cultured in minimum essential medium/Ham’s-F12 (1:1, v/v) medium, supplemented with non-essential amino acids, 10% fetal bovine serum, 1 mM glutamine, and 50 μg/mL gentamycin (all reagents from Gibco, Invitrogen). For experiments, the cells were seeded at 3 × 10^5 cells/mL (100 μL/well) in 96-well plates (Nunc). After 24 h, the testing compounds were added concentrated to triplicate wells to obtain the final different concentrations up to 100 μM. Compounds were incubated for further 24 h. At termination, cytotoxicity was analyzed by the propidium iodide (PI) fluorescence stain assay. All compounds were tested in three independent experiments using different cell passages. The PI assay measures cell death. […]. The percentage of cell death induced by the treatments was calculated from the fluorescence of treated cells (Ft) relative to that of control cells (Fmin) and cells incubated with Triton X100 (Fmax) as the 0 and 100% cell death, respectively [% = ((Ft – Fmin)/(Fmax – Fmin)) × 100].

CYP 1A2 = target: T1, CYP 1A2 (Homo sapiens, UniProt P05177); experiment: Cytochrome P450 inhibition, fluorescence detection; type: in vitro ADME; details: at 10 μM
T1 sequence (P05177 1-516): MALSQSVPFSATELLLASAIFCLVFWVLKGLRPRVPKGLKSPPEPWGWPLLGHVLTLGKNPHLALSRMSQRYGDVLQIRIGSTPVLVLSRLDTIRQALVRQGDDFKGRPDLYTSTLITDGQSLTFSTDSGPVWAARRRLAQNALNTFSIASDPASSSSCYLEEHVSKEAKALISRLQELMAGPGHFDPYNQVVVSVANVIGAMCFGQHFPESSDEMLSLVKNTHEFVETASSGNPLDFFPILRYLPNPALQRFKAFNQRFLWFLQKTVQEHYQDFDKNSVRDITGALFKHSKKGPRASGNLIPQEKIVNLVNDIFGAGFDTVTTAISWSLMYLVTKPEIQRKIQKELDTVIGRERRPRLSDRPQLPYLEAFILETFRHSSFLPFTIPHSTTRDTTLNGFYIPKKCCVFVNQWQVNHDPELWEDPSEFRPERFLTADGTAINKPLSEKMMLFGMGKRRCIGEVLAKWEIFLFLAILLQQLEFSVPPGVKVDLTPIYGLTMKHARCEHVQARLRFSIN

CYP 2C9 = CYP 2C9 (Homo sapiens, UniProt P11712); experiment: Cytochrome P450 inhibition, fluorescence detection; type: in vitro ADME; details: at 10 μM
CYP 2C19 = CYP 2C19 (Homo sapiens, UniProt P33261); experiment: Cytochrome P450 inhibition, fluorescence detection; type: in vitro ADME
CYP 2D6 = CYP 2D6 (Homo sapiens, UniProt P10635); experiment: Cytochrome P450 inhibition, fluorescence detection; type: in vitro ADME; details: at 10 μM
CYP 3A4 = CYP 3A4 (Homo sapiens, UniProt P08684); experiment: Cytochrome P450 inhibition, fluorescence detection; type: in vitro ADME; details: at 10 μM; for CYP 3A4 (BFC) inhibition: substrate benzyloxytrifluoromethylcoumarin; for CYP 3A4 (DBF) inhibition: substrate dibenzylfluorescein
Procedure: The objective of this study was to screen the inhibition potential of the compounds using recombinant human cytochrome P450 enzymes CYP3A4 (BFC and DBF substrates) and probe substrates with fluorescent detection. Incubations were conducted in a 200 μL volume in 96-well microtiter plates (COSTAR 3915). The addition of the mixture buffer-cofactor (KH2PO4 buffer, 1.3 mM NADP, 3.3 mM MgCl2, 0.4 U/mL glucose-6-phosphate dehydrogenase), control supersomes, the Standard inhibitor Ketoconazole (Sigma K1003), and previously diluted compounds to plates was carried out by a liquid handling station (Zephyr Caliper). The plate was then preincubated at 37 °C for 5 min in a 100 μL volume, and reaction was initiated by the addition of a prewarmed enzyme/substrate (E/S) mix. The E/S mix contained buffer (KH2PO4), enzyme (CYP), substrate 7-benzyloxytrifluoromethyl coumarin (7-BFC), and dibenzylfluorescein (DBF) in a reaction volume of 200 μL. Reactions were terminated after various times depending on the substrate by addition of STOP solution (ACN/TrisHCl 0.5 M 80:20 (BFC) or 2 N NaOH for CYP3A4 (DBF). Fluorescence per well was measured using a fluorescence plate reader (Tecan M1000 pro) and percentage of inhibition was calculated.

hERG potassium channel = target: T2, hERG potassium channel (Homo sapiens, UniProt Q12809); experiment: hERG inhibition assay (Fluxor potassium ion channel kit, transfected CHO cells); type: cell-based; details: at 10 μM
T2 construct: expressed in transfected cells; host or cells: CHO
Procedure: The assay was carried out at a CHO cell line transfected with the hERG potassium channel. 72 h before the assay, 2500 cells were seeded on a 384-well black plate (Greiner 781091). The cell line was maintained at 37 °C in a 5% CO2 atmosphere for 24 h and at 30 °C in a 5% CO2 atmosphere for 48 h plus. hERG activity was measured by using the FluxorTM Potassium Ion Chanel Assay Kit (Thermo Fisher F10016). Medium was replaced for 20 μL of loading buffer and the cells were incubated for 60 min at RT, protected from direct light. After incubation, the loading buffer was replaced for the assay buffer and the compounds were incubated for 30 min at RT. 5 μL of a stimulus buffer was added to each well and the fluorescence was read (λex = 490 nm, λem = 525 nm) using an imaging plate reader system (FDSS7000EX, Hamamatsu) every second after the establishment of a baseline line.

[1] = Pharmacokinetic study after IP administration; type: in vivo, male C57BL/6 mice; details: for AUC(0-t) / Cl / Cmax / Tmax / Vd / half-life / AUC(0-inf): ip; for AUC(0-inf): AUCINF
Procedure: During the experimental procedure, animals were identified with a permanent marker (tail code numbers). […] They underwent a period of at least 5 days of observation and acclimatization between the date of arrival and the start of the procedure. […] Diet was analyzed by the manufacturer to detect possible contaminants. Tap water was supplied by CASSA (Servei d’Aigües de Sabadell) and was provided to the animals by bottles ad libitum. […] Ministry of Agriculture, Livestock, and Fishing of the autonomous government of Catalonia, Spain. […] Formulations were prepared on the day of the study. […] Animals were weighed before each administration to adjust the required volume. […] Blood samples (0.5–0.8 mL) were collected from anesthetized animals with isoflurane by cava vein puncture in tubes containing K2-EDTA 5%. Blood samples were centrifuged at 10,000 rpm for 5 min to obtain plasma that was stored at −20 °C until analysis. Analytical measurements were performed by LC–MS/MS. Pharmacokinetics parameters were calculated with Phoenix 64 (WinNonlin).

[2] = IC50 calculated for >50% inhibition at 10 μM
[3] = male, C57BL/6, mouse, in vivo, 3 mg/kg

Chain of CYP 2C19 (P33261 whole entry): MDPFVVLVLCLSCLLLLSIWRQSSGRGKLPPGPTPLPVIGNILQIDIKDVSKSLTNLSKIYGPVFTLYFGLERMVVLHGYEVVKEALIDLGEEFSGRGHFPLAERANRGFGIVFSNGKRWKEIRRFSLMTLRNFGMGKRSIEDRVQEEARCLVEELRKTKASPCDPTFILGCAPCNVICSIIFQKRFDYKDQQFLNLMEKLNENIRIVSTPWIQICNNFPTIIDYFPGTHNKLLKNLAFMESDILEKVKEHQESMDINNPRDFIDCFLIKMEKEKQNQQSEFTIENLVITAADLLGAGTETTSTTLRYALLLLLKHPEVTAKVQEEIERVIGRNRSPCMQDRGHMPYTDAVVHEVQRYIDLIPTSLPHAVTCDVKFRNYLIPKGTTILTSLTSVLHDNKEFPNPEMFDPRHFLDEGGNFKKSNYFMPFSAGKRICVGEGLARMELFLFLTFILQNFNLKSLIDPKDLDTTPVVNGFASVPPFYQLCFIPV
Chain of CYP 3A4 (P08684 whole entry): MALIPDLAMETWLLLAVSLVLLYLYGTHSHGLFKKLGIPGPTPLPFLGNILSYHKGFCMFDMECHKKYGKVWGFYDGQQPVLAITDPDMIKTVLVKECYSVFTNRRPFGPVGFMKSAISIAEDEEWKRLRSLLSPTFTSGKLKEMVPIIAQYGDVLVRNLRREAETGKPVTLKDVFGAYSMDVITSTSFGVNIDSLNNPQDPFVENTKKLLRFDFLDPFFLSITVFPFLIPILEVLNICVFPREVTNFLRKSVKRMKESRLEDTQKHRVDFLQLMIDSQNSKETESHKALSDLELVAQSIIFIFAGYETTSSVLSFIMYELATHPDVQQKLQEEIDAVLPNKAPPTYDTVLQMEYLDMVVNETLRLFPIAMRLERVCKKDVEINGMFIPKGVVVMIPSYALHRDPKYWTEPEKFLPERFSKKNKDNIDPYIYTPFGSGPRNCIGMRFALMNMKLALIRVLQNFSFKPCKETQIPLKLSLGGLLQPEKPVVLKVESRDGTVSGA
Chain of CYP 2D6 (P10635 whole entry): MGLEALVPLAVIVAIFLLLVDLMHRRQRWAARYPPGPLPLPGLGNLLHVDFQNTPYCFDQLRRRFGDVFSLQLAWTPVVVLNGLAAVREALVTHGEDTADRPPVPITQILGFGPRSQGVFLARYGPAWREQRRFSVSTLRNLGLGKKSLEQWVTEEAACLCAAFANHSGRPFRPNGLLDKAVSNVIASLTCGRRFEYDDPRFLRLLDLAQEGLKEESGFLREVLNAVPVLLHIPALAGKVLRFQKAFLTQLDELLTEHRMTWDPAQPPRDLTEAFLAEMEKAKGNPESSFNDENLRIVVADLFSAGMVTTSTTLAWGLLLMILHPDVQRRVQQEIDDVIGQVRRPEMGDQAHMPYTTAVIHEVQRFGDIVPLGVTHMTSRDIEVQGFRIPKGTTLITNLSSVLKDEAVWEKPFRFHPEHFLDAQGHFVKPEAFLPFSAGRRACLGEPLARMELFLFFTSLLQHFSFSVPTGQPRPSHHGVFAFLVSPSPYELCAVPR
Chain of CYP 2C9 (P11712 whole entry): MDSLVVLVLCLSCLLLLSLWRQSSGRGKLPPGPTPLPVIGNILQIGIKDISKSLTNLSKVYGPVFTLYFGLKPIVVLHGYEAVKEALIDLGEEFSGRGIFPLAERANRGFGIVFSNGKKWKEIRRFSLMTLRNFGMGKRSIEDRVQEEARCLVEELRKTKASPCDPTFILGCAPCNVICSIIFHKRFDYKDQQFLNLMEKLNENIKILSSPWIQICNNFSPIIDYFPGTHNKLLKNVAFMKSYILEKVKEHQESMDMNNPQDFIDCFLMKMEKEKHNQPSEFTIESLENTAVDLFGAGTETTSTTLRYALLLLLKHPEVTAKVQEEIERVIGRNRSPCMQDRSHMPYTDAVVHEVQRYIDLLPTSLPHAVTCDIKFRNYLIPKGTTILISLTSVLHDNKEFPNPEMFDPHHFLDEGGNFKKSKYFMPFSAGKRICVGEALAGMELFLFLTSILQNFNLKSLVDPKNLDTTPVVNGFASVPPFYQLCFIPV
T2 sequence (Q12809 whole entry): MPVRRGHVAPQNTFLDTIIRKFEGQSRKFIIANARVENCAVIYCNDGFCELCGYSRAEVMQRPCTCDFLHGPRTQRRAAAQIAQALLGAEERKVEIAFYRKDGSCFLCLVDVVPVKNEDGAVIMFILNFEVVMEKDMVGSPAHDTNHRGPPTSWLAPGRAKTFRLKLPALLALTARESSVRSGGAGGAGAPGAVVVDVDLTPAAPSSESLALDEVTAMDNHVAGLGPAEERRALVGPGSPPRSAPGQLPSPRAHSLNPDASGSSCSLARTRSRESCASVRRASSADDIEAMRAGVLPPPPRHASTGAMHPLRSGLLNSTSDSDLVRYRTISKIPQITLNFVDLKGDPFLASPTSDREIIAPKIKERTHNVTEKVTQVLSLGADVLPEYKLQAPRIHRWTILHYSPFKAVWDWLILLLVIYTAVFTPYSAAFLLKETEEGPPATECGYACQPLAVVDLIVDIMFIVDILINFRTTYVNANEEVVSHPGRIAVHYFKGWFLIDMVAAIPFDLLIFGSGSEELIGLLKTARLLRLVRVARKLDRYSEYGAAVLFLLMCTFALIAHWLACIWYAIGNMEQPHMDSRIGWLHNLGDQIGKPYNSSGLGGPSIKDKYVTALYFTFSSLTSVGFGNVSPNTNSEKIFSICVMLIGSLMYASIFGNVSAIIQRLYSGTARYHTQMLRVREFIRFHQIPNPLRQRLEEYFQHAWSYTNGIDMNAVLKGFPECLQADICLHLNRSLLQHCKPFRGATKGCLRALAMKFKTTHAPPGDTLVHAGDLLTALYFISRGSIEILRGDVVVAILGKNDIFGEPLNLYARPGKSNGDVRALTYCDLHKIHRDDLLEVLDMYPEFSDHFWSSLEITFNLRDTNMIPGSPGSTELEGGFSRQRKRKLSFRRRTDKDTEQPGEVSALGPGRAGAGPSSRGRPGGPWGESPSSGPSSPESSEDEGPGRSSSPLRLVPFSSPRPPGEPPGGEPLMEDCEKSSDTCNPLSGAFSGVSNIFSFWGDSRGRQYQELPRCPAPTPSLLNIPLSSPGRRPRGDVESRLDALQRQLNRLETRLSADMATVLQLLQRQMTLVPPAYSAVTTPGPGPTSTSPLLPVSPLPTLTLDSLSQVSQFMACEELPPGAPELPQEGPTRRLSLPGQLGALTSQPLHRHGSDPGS

SMILES	cytotoxicity at the highest concentration tested (SH-SY5Y cells)	CYP 1A2 inhibition (CYP 1A2)	CYP 2C9 inhibition (CYP 2C9)	IC50 (CYP 2C19)	IC50 (CYP 2C19; [2])	CYP 2D6 inhibition (CYP 2D6)	CYP 3A4 (BFC) inhibition (CYP 3A4)	CYP 3A4 (DBF) inhibition (CYP 3A4)	hERG channel inhibition (hERG potassium channel)	AUC(0-t) [1, 3]	Cl [1, 3]	Cmax [1, 3]	Tmax [1, 3]	Vd [1, 3]	half-life [1, 3]	AUC(0-inf) [1, 3]	also measured
CC12CC3CC(NC(=O)N[C@H]4CC[C@H](Oc5ccc(C(=O)O)cc5)CC4)(CC(C1)c1ccccc13)C2 [Compound 20, 4-[((1r,4r)-4-(3-(9-Methyl-5,6,8,9,10,11-Hexahydro-7H-5,9:7,11-dimethanobenzo[9]annulen-7-yl)ureido)cyclohexyl)oxy]benzoic Acid]	None of the compounds showed to be cytotoxic	1 ± 2%	17 ± 3%	~2000 nM	1900 nM	1 ± 1%	2 ± 2%	14 ± 1%	4%	2260 ng·h/mL	1.29 L/h/kg	1610 ng/mL	0.5 h	2.18 L/kg	70.2 min	2320 ng·h/mL	fold more potency inhibiting the sEH than CYP2C19 (CYP 2C19): 2000 fold; Total Concentration in mouse plasma, individual mice ([1]; male, C57BL/6, mouse, in vivo, 24 h): 0 ng/mL
O=C(NC12CC3CC(Cl)(CC(C1)c1ccccc13)C2)N[C@H]1CC[C@H](Oc2ccc(C(=O)O)cc2)CC1 [Compound 22, 4-[((1r,4r)-4-(3-(9-Chloro-5,6,8,9,10,11-hexahydro-7H-5,9:7,11-dimethanobenzo[9]annulen-7-yl)ureido)cyclohexyl)oxy]benzoic Acid]	None of the compounds showed to be cytotoxic	14 ± 4%	31 ± 3%	~2000 nM	2200 nM	11 ± 3%	1 ± 2%	52 ± 4%	44%	22500 ng·h/mL	0.13 L/h/kg	3580 ng/mL	2 h	0.96 L/kg	312 min	23300 ng·h/mL	Total Concentration in mouse plasma, individual mice ([1]; 3 mg/kg ip, 0.25 h (5400 for 20 excluded as outlier)): 151 ng/mL and 291 ng/mL and 622 ng/mL; Total Concentration in mouse plasma, individual mice ([1]; 3 mg/kg ip, 0.5 h): 1520 ng/mL and 1980 ng/mL; Total Concentration in mouse plasma, individual mice ([1]; 3 mg/kg ip, 1 h): 1100 ng/mL and 2640 ng/mL and 600 ng/mL; Total Concentration in mouse plasma, individual mice ([1]; 3 mg/kg ip, 2 h): 2440.0 ng/mL and 2640.0 ng/mL and 5670.0 ng/mL; Total Concentration in mouse plasma, individual mice ([1]; 3 mg/kg ip, 4 h): 1960.0 ng/mL and 1350.0 ng/mL; Total Concentration in mouse plasma, individual mice ([1]; 3 mg/kg ip, 6 h): 1160 ng/mL and 734.0 ng/mL and 1530 ng/mL; Total Concentration in mouse plasma, individual mice ([1]; 3 mg/kg ip, 24 h): 181.0 ng/mL and 40.6 ng/mL and 92.3 ng/mL; concentration at 0.25 h ([1]; male, C57BL/6, mouse, in vivo, 3 mg/kg, 3 mg/kg ip, 0.25 h, read-out: Mean concentration in mouse plasma): 355 ng/mL; concentration at 0.5 h ([1]; male, C57BL/6, mouse, in vivo, 3 mg/kg, 3 mg/kg ip, 0.5 h, read-out: Mean concentration in mouse plasma): 1620 ng/mL; concentration at 0.5 h ([1]; male, C57BL/6, mouse, in vivo, 3 mg/kg, 3 mg/kg ip, 0.5 h, read-out: Total Concentration in mouse plasma, individual mice): 1350 ng/mL; concentration at 1 h ([1]; male, C57BL/6, mouse, in vivo, 3 mg/kg, 3 mg/kg ip, 1 h, read-out: Mean concentration in mouse plasma): 1450 ng/mL; concentration at 2 h ([1]; male, C57BL/6, mouse, in vivo, 3 mg/kg, 3 mg/kg ip, 2 h, read-out: Mean concentration in mouse plasma): 3580 ng/mL; concentration at 4 h ([1]; male, C57BL/6, mouse, in vivo, 3 mg/kg, 3 mg/kg ip, 4 h, read-out: Mean concentration in mouse plasma): 1520 ng/mL; concentration at 4 h ([1]; male, C57BL/6, mouse, in vivo, 3 mg/kg, 3 mg/kg ip, 4 h, read-out: Total Concentration in mouse plasma, individual mice): 1240 ng/mL; concentration at 6 h ([1]; male, C57BL/6, mouse, in vivo, 3 mg/kg, 3 mg/kg ip, 6 h, read-out: Mean concentration in mouse plasma): 1140 ng/mL; concentration at 24 h ([1]; male, C57BL/6, mouse, in vivo, 3 mg/kg, 3 mg/kg ip, 24 h, read-out: Mean concentration in mouse plasma): 105 ng/mL
O=C(NC12CC3CC(F)(CC(C1)c1ccccc13)C2)N[C@H]1CC[C@H](Oc2ccc(C(=O)O)cc2)CC1 [Compound 23, 4-[((1r,4r)-4-(3-(9-Fluoro-5,6,8,9,10,11-hexahydro-7H-5,9:7,11-dimethanobenzo[9]annulen-7-yl)ureido)cyclohexyl)oxy]benzoic Acid]	None of the compounds showed to be cytotoxic	–	–	–	–	–	–	–	–	–	–	–	–	–	–	–	–

Reference: publication PMC8634379, “From the Design to the In Vivo Evaluation of Benzohomoadamantane-Derived Soluble Epoxide Hydrolase Inhibitors for the Treatment of Acute Pancreatitis” (Journal of Medicinal Chemistry, 2021)
